Entries after “also recorded” stand apart in the source; their conditions may differ. Read-outs that look alike come from different tables or passages of the source.
Columns and labels:
MAO-B = target: T1, MAO-B (Rattus norvegicus, UniProt P19643); assay: biochemical; details: for SI (selectivity index for MAO-B): ratio of experimental IC50(MAO-A)/IC50(MAO-B)
T1 construct: employing crude rat brain mitochondrial suspension; from tissue; host or cells: brain mitochondria of adult Wistar rats
T1 sequence (P19643 1-520): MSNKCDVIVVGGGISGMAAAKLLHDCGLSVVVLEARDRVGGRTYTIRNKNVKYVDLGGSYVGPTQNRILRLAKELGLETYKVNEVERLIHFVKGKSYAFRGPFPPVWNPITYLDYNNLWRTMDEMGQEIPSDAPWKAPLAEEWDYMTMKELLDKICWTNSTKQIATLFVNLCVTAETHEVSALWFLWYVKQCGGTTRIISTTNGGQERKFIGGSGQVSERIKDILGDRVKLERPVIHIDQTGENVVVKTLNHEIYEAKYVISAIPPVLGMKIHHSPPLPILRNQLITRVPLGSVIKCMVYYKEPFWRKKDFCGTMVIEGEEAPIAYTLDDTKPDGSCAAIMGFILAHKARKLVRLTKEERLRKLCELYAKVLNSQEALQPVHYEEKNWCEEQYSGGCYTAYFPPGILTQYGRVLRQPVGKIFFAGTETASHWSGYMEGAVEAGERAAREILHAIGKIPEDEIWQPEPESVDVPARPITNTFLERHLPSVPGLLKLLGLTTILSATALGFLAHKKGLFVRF
Description: Rat brain mitochondria were used as a source of MAO isoforms. All operations were carried out at 4 °C[50]. Male and female adult Wistar rats weighing 200–220 g were decapitated. All brains were rapidly removed and homogenised with a Potter–Elvehjem homogeniser in cold 0.32 M sucrose and 50 mM Tris-HCl, pH 8.2 (10:1, v/w). The homogenate was centrifuged twice at 1000 g for 5 min at 4 °C. The resulting supernatant was centrifuged at 20,000 g for 20 min. The mitochondrial pellet obtained was suspended in 100 mM sodium phosphate buffer, pH 7.4 (4:1, v/w), fractionated in plastic vials to 500 µl samples and stored at −80 °C. Before use, mitochondria were diluted with 100 mM sodium phosphate buffer to give a working solution of 0.80 mg of protein per millilitre.
The experiments were carried out under all the suitable laboratory conditions. […] An aliquot was made to contain mixture of 55 µl mitochondrial suspension (0.80 mg of protein/ml), 90 µl 50 mM Tris-HCl buffer, pH 8.2 and 30 µl solubilising solution (control or inhibitor solution at five different concentrations). The reaction was initiated by adding 25 µl of serotonin (4 mM, substrate for MAO-A) and 25 µl benzylamine (0.1 M, substrate for MAO-B) for the determination of MAO-A and MAO-B activity, respectively. The mixture was incubated at 37 °C for 30 min and the reaction was stopped by the addition of 50 µl of 1 N HCl. The absorbance associated with the production of 5-hydroxyindolacetic acid was measured at 280 nm for the estimation of MAO-A while for MAO-B estimation, the absorbance was measured at 250 nm due to the formation of benzaldehyde. All the assays were performed in triplicate. Control experiments were carried out without inhibitor and blanks were run without mitochondrial suspension.
Data are expressed as mean ± standard error mean (SEM) of experiments performed in triplicate.
(§1) 0, 15, 30 and 60 min at 37 °C in Tris-HCl buffer (50 mM, pH 8.2). […] The reactions were further incubated at 37 °C for a further 15 min and the residual enzyme activities were measured and the bar graphs were constructed. All measurements were carried out in triplicate and are expressed as mean ± SEM.

rat brain AChE = target: T2, rat brain AChE (Rattus norvegicus, UniProt P37136); assay: biochemical; type: biochemical; details: for IC50: rat brain AChE, ACTI substrate, mean ± SEM, triplicate
T2 construct: the resulting clear supernatants obtained were used as enzyme sources; from tissue; host or cells: rat brain cortex homogenate, 10,000 g supernatant
Description: Rat brain was used as a source of AChE enzyme. Rats were separately decapitated, the brain cortices quickly removed, weighed and homogenised in cold 10 mM Tris-HCl buffer, pH 7.2, containing 160 mM sucrose. The homogenates were centrifuged at 10,000 g for 10 min at 4 °C, and the resulting clear supernatants obtained were used as enzyme sources that were divided into aliquots and stored at −20 °C.
About 30 µl of enzyme sample (AChE) was added to 60 µl of 20 mM sodium phosphate buffer (pH 7.4) and were incubated in the presence of 30 µl of 10 mM DTNB solution with different concentrations of the test compounds. The enzyme reaction was initiated by the addition of 30 µl of 0.8 mM ACTI. The mixtures were incubated for 15 min at 25 °C. […] Control experiments were carried out without inhibitor, and blanks were run without AChE enzyme. All the assays were performed in triplicate. IC50 values were determined using the GraphPad Prism 5.0 (San Diego, CA) and the results were expressed as mean ± SEM.
as §1, with “25” for “37”, “sodium phosphate” for “Tris-HCl”, “(20” for “(50”, “7.4) and DTNB solution (10 mM).” for “8.2).”, “reaction was” for “reactions were”

[1] = In vitro DPPH radical scavenging assay; details: test sample 100 µg/ml, 100 µM methanolic DPPH, 30 min, 517 nm
Description: Antioxidant activity of the synthesised compounds (10 mg/ml) was evaluated using the radical scavenging capability against the stable free radical, 2,2′-diphenyl-1-picryl hydrazyl (DPPH·). The DPPH· scavenging capability was determined using UV based spectrophotometric assay. About 200 µl of the test sample solution (100 µg/ml) was added to 4 ml of 100 µM methanolic DPPH. […] Ascorbic acid (100 µg/ml) was used as reference. The percentage inhibition of DPPH activity was estimated using the formula: Percent (%) inhibition of DPPH activity = Acontrol-Asample/Acontrol×100 where Acontrol is the absorbance of DPPH· in methanol without an antioxidant and Asample is the absorbance of DPPH· in the presence of an antioxidant.

[2] = time-dependent inhibition, pre-incubation 0, 15, 30, 60 min
[3] = read-out: AChE In vitro IC50 (µM) ± SEM

T2 sequence (P37136 32-614): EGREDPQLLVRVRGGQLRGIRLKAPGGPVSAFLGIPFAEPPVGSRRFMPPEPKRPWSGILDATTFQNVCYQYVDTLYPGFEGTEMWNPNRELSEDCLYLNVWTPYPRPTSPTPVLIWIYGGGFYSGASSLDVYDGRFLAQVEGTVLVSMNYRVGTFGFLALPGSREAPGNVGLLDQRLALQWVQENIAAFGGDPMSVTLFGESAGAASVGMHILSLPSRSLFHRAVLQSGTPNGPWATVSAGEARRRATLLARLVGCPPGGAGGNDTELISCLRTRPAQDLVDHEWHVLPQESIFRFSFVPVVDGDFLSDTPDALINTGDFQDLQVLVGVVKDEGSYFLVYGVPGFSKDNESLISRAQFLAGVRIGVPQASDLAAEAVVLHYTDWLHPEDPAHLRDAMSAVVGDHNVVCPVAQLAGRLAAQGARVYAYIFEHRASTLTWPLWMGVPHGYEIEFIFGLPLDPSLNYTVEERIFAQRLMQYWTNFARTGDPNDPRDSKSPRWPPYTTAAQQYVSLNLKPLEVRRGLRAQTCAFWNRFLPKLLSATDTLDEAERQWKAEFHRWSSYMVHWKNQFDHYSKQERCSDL

SMILES | logP (physchem; octanol/water) | IC50 (MAO-B) [nM] | Ki (MAO-B) [nM] | Mode of MAO-B inhibition (MAO-B; Lineweaver–Burk plots, benzylamine) | SI (selectivity index for MAO-B) (MAO-B) | Reversibility of MAO-B inhibition (MAO-B; [2]) | IC50 (rat brain AChE; [3]) [µM] | % inhibition of DPPH activity [1] [%] | AChE: fold decrease in activity versus bromo substitution (compound 4) (rat brain AChE; halogen at carbimino terminal phenyl ring) [fold] | logP (physchem) | MAO-B: fold increase in activity relative to compound 17 (MAO-B; diaryl analogues) [fold] | IC50 (rat brain AChE; AChE In vitro IC50 (µM) ± SEM) [µM] | AChE: fold increase in activity relative to compound 17 (rat brain AChE; diaryl analogues) [fold] | Mode of AChE inhibition (rat brain AChE; Lineweaver–Burk plots, ACTI) | Reversibility of AChE inhibition (rat brain AChE; [2])
CC(=NNC(=O)Nc1ncc([N+](=O)[O-])s1)c1ccc(Br)cc1 [Compound 4, 1-(1-(4-Bromophenyl)ethylidene)-4-(5-nitrothiazol-2-yl)semicarbazide] | 2.2 | 212 ± 4 | 11700 ± 580 | competitive; also recorded: competitively | 331.08 | reversible | 0.34 ± 0.007 | 58.68 |  |  |  |  |  |  | 
CC(=NNC(=O)Nc1ncc([N+](=O)[O-])s1)c1ccc(Cl)cc1 [Compound 5, 1-(1-(4-Chlorophenyl)ethylidene)-4-(5-nitrothiazol-2-yl)semicarbazide] | 2.1 | 601 ± 15 |  |  | 7921.79 |  | 356 ± 4.73 | 51.83 | > 1000 |  |  |  |  |  | 
O=C(NN=C(c1ccc(Cl)cc1)c1ccc(Cl)cc1)Nc1ncc([N+](=O)[O-])s1 [Compound 19, 1-(Bis(4-chlorophenyl)methylene)-4-(5-nitrothiazol-2-yl)semicarbazide] |  | 1480 ± 63 |  |  | 34360.43 |  |  | 24.03 |  | 3.9 | ~19.32 | 1.45 ± 0.047 | ~7.95 |  | 
O=C(NN=C1C(=O)Nc2ccc(Br)cc21)Nc1ncc([N+](=O)[O-])s1 [Compound 21, 1-(5-Bromo-2-oxoindolin-3-ylidene)-4–(5-nitrothiazol-2-yl)semicarbazide] | 1.9 | 734 ± 6 |  |  | 77.94 |  | 0.264 | 65.65 |  |  |  |  |  | mixed-type | reversible

Source: paper PMC6009888, “Design, synthesis, and pharmacological evaluation of 2-amino-5-nitrothiazole derived semicarbazones as dual inhibitors of monoamine oxidase and cholinesterase: effect of the size of aryl binding site” (Journal of Enzyme Inhibition and Medicinal Chemistry, 2017)
